According to US6646006B2, “Enhancement of vascular function by modulation of endogenous nitric oxide production or activity” (The Board of Trustees of the Leland Stanford Junior …, priority 1993, dated 2003):

Key:
[1] = test system: human aortic endothelial cells (HAEC); assay: Flow-exposed human aortic endothelial cells: THP-1 monocyte binding after oxLDL or LPS/TNF; type: cell-based; details: oxLDL 30 μg/ml
Procedure: FIG. 6. Stimulation of cultured endothelial cells with fluid flow causes them to secrete nitric oxide. Flow-induced secretion of nitric oxide decreases endothelial adhesiveness induced by oxidized LDL cholesterol (oxLDL; 30 μg/ml). Exposure of human aortic endothelial cells to oxLDL increased the ex vivo binding of monocytes when compared to Control. In comparison to cells not exposed to flow (static), previous exposure to flow inhibited the monocyte adhesion induced by oxLDL. These effects of flow were blocked by NO synthase inhibitors and mimicked by NO donors (PAPA-NO) or cyclic GMP (cGMP). Bars represent mean±SEM. *p<0.05; **p<0.01. (See Ex. 8)
Methods and Results: Confluent monolayers of human aortic endothelial cells (HAEC) were exposed to static or fluid flow conditions for 4 hours (fluid flow stimulates the production of endogenous nitric oxide). Medium was then replaced and cells were then incubated with native LDL (50 μg/ml), oxidized LDL (30 μg/ml), or LPS (10 ng/ml)+TNF-α (10 U/ml) for an additional 4 hours. Functional binding assays utilizing THP-1 monocytes were then performed. Superoxide production by HAECs was monitored by lucigenin chemiluminescence and expression of the adhesion molecules VCAM-1 and ICAM-1 was quantitated by flow cytometry. […] Previous exposure to fluid flow inhibited endothelial adhesiveness for monocytes (FIG. 6) and the other sequelae of exposure to cytokines or oxidized lipoprotein.

[2] = test system: Smooth muscle cells (SMC); assay: Oxidized LDL-exposed aortic smooth muscle cells: MCP-1, superoxide anion, NFκB; type: cell-based, rabbit; details: DETA-NONOate 100 μM pre-exposure, oxLDL 30 μg/ml
Procedure: (§1) Methods and Results. Smooth muscle cells (SMC) were isolated from normal rabbit aortae by explant method. Cells were then exposed to oxidized LDL (30 μg/ml) (which is known to induce vascular cells to synthesize MCP-1). […] All of these effects of oxidized LDL cholesterol were reduced by previous exposure of the SMC to the NO-donor DETA-NONOate (100 μM) (p<0.05). To determine if NO exerted its effect at a transcriptional level, SMC and COS cells were transfected with a 400 bp fragment of the MCP-1 promoter. Enhanced promoter activity by oxLDL was inhibited by DETA-NO.

MCP-1 promoter = MCP-1 promoter activity in transfected SMC and COS cells; type: cell-based; details: 400 bp promoter fragment
Procedure: as §1

platelets = assay: ADP-initiated platelet aggregation (nephelometry), platelets from treated rabbits; type: in vivo, rabbit; details: N-methylarginine 10^−4 M in vitro
Procedure: The effect of L-arginine supplementation on platelet reactivity in rabbits that had normal chow (Control; n=6), a 1% cholesterol diet (Chol; n=5), or a 1% cholesterol diet supplemented with oral arginine (Arg; n=6), as detailed above, was examined. Arterial blood obtained after central ear artery cannulation was anticoagulated with 13 mM sodium citrate. Platelet-rich suspension was prepared by washing platelets in calcium-free Krebs-Henseleit solution and resuspending them in Tyrode's solution with albumin. Aggregation was initiated by addition of adenosine diphosphate and monitored by standard nephelometric techniques. In platelets derived from Chol animals, aggregation was not different in rate or maximum extent in comparison to platelets from Control animals (A, in FIG. 2). By contrast, aggregation of platelets from Arg animals was reduced by 50% (B, in FIG. 2).
Therefore, the anti-platelet effect of chronic oral arginine administration can be credited to an increased synthesis of endogenous NO. Furthermore, NO synthesis may be induced in both the platelets and the endothelium.

[3] = test system: hypercholesterolemic rabbits; assay: Oral L-lysine in cholesterol-fed rabbits: vasorelaxation and histomorphometry; type: in vivo, rabbit; details: ten weeks
Description: FIG. 9 is a set of dose-response curves showing the effect of chronic lysine administration on endothelium dependent vasodilation in hypercholesterolemic rabbits. […] Chronic administration of lysine was just as effective as arginine in restoring vascular function and structure. (See Ex. 14)
L-lysine is a basic amino acid like L-arginine, but is not known to be metabolized by NO synthase to NO. Therefore, the following results were unexpected. New Zealand white rabbits were fed a normal or high cholesterol chow (n=18). Half of the animals on the cholesterol diet also received oral L-lysine. After ten weeks, the thoracic aortae were harvested and bioassayed for vascular NO synthesis, and histomorphometry to assess lesion formation was performed as described above.

[4] = test system: hypercholesterolemic rabbits; details: vs 1% cholesterol diet alone, ten weeks
Description: At ten weeks animals were sacrificed for studies of platelet and vascular reactivity, and histomorphometry.

Nc1nc2c(ncn2[C@@H]2O[C@@H]3COP(=O)(O)O[C@H]3[C@H]2O)c(=O)[nH]1 [cGMP, cyclic guanosine monophosphate]
mimicry of the effects of flow on monocyte adhesion [1]: mimicked

NCCN(CCN)/[N+]([O-])=N/O [DETA-NONOate]
activity of NFκB induced by oxidized LDL [2]: reduced | expression of MCP-1 induced by oxidized LDL [2]: reduced | generation of superoxide anion induced by oxidized LDL [2]: reduced | MCP-1 promoter activity enhanced by oxLDL (MCP-1 promoter): inhibited

CN[C@@H](CCCNC(=N)N)C(=O)O [N-methylarginine, reference compound]
reversal of the arginine-induced reduction of platelet reactivity (platelets): could be reversed | reversal of the arginine-induced reduction of platelet reactivity (platelets; listed as LNMMA): reverses

NCCCC[C@H](N)C(=O)O [L-lysine]
vascular NO activity (endothelium-dependent vasorelaxation) [3]: just as effective as L-arginine | vascular lesion formation / plaque area [3]: marked reduction | vascular NO activity (endothelium-dependent vasorelaxation) ([3]; listed as lysine): improved

CSCC[C@H](N)C(=O)O [methionine]
endothelium-dependent relaxation [4]: not different | intimal thickness [4]: not different | platelet aggregation [4]: not different

CCCN(CCCN)/[N+]([O-])=N/O [PAPA-NONOate]
mimicry of the effects of flow on monocyte adhesion [1]: mimicked the effects of flow | mimicry of the effects of flow on monocyte adhesion ([1]; listed as PAPA-NO): mimicked
